Laboratory results: ChEMBL document CHEMBL5120927, “LEGO-Lipophosphonoxins: A Novel Approach in Designing Membrane Targeting Antimicrobials” (J Med Chem, 2022)

Columns and labels:
Escherichia coli [1] = test: Antibacterial activity against multidrug-resistant Escherichia coli CE5556 expressing CTX-M-15 assessed as reduction in microbial growth incubated for 24 hrs by microdilution assay; assay type: functional
Staphylococcus aureus [2] = test: Antibacterial activity against Staphylococcus aureus ATCC 29213 = CCM 4223 assessed as inhibition of bacterial growth incubated for 24 hrs in presence of BSA by microdilution assay; assay type: functional
Escherichia coli [3] = test: Antibacterial activity against Escherichia coli ATCC 25922 = CCM 3954 assessed as inhibition of bacterial growth incubated for 24 hrs by microdilution assay; assay type: functional
[4] = Cytotoxicity against human HepG2 cells assessed as reduction in cell viability; assay type: toxicity, cell-based
Staphylococcus aureus [5] = test: Antibacterial activity against methicillin resistant Staphylococcus aureus 4591/A assessed as reduction in microbial growth incubated for 24 hrs by microdilution assay; assay type: functional
[6] = tested on: Staphylococcus epidermidis; test: Antibacterial activity against Staphylococcus epidermidis CCM 7221 assessed as inhibition of bacterial growth incubated for 24 hrs by microdilution assay; assay type: functional
Pseudomonas aeruginosa [7] = test: Antibacterial activity against multidrug-resistant Pseudomonas aeruginosa assessed as reduction in microbial growth incubated for 24 hrs by microdilution assay; assay type: functional
Staphylococcus aureus [8] = test: Antibacterial activity against Staphylococcus aureus ATCC 29213 = CCM 4223 assessed as inhibition of bacterial growth incubated for 24 hrs by microdilution assay; assay type: functional
[9] = Gradient chromatographic hydrophobicity index of the compound at pH 3.7 by HPLC analysis; assay type: ADME
Enterococcus faecalis = test: Antibacterial activity against Enterococcus faecalis ATCC 29212 = CCM 4224 assessed as inhibition of bacterial growth incubated for 24 hrs by microdilution assay; assay type: functional
[10] = Hemolytic activity in human RBC assessed as haemoglobin release measured after 3 hr; assay type: toxicity, cell-based, Erythrocyte; settings: red blood cells (erythrocytes)
Enterococcus faecium = test: Antibacterial activity against vancomycin resistant Enterococcus faecium 419/ANA assessed as reduction in microbial growth incubated for 24 hrs by microdilution assay; assay type: functional
Pseudomonas aeruginosa [11] = test: Antibacterial activity against Pseudomonas aeruginosa ATCC 27853 = CCM 3955 assessed as inhibition of bacterial growth incubated for 24 hrs by microdilution assay; assay type: functional
Escherichia coli [12] = test: Antibacterial activity against Escherichia coli ATCC 25922 = CCM 3954 assessed as inhibition of bacterial growth incubated for 24 hrs in presence of BSA by microdilution assay; assay type: functional

SMILES	MIC (Escherichia coli [1]) [µg/mL]	MIC (Staphylococcus aureus [2]) [µg/mL]	MIC (Escherichia coli [3]) [µg/mL]	CC50 [4] [µM]	MIC (Staphylococcus aureus [5]) [µg/mL]	MIC [6] [µg/mL]	MIC (Pseudomonas aeruginosa [7]) [µg/mL]	MIC (Staphylococcus aureus [8]) [µg/mL]	CHI [9]	MIC (Enterococcus faecalis) [µg/mL]	HC50 at 3 h [10] [µg/mL]	MIC (Enterococcus faecium) [µg/mL]	MIC (Pseudomonas aeruginosa [11]) [µg/mL]	MIC (Escherichia coli [12]) [µg/mL]
CCC/C=C\CCOP(=O)(CCN(CCCN)CCCN)OCCCCCCOP(=O)(CCN(CCCN)CCCN)OCC/C=C\CCC.Cl.Cl.Cl.Cl.Cl.Cl (configuration not stated)	32	16	16	> 99	4	1	128	4	29.6	> 128	> 200	> 128	128	32
CCCCCCCOP(=O)(CCN(CCCN)CCCN)OCCCCCCCOP(=O)(CCN(CCCN)CCCN)OCCCCCCC.Cl.Cl.Cl.Cl.Cl.Cl (configuration not stated)	2	1	8	89.5	1	0.5	8	1	33.9	4	287	64	16	1
CCCCOP(=O)(CCN(CCN)CCN)OCCCCCCCCCCOP(=O)(CCN(CCN)CCN)OCCCC.Cl.Cl.Cl.Cl.Cl.Cl (configuration not stated)	> 128	> 128	64	> 99	128	64	128	64	34.2	64	55	128	64	> 128
CCCCCCOP(=O)(CCN(CCCN)CCCN)OCCCCCCCCOP(=O)(CCN(CCCN)CCCN)OCCCCCC.Cl.Cl.Cl.Cl.Cl.Cl (configuration not stated)	8	2	1	> 99	2	0.5	64	1	31.4	16	> 500	> 128	16	8
Cl.Cl.Cl.Cl.Cl.Cl.NCCCN(CCCN)CCP(=O)(OCCCOP(=O)(CCN(CCCN)CCCN)OCC12CC3CC(CC(C3)C1)C2)OCC12CC3CC(CC(C3)C1)C2 (configuration not stated)	16	4	8	> 99	4	2	16	4	32.6	8	> 500	64	64	8
Cl.Cl.Cl.Cl.Cl.Cl.NCCCN(CCCN)CCP(=O)(OCCCOP(=O)(CCN(CCCN)CCCN)OCCC12CC3CC(CC(C3)C1)C2)OCCC12CC3CC(CC(C3)C1)C2 (configuration not stated)	2	2	2	93.6	1	2	4	1	36.9	2	196	32	16	1
CCCCC/C=C\CCOP(=O)(CCN(CCCN)CCCN)OCCCCCCOP(=O)(CCN(CCCN)CCCN)OCC/C=C\CCCCC.Cl.Cl.Cl.Cl.Cl.Cl (configuration not stated)	1	2	1	30.8	1	0.5	2	0.5	37.5	2	262	8	2	0.5
CCCCCCOP(=O)(CCN(CCCN)CCCN)OCCCCCCCCCCOP(=O)(CCN(CCCN)CCCN)OCCCCCC.Cl.Cl.Cl.Cl.Cl.Cl (configuration not stated)	8	3	0.5	17.5	1	0.5	8	0.5	34.8	4	743	32	4	1
CCCCC/C=C\CCOP(=O)(CCN(CCCN)CCCN)OCCCCCOP(=O)(CCN(CCCN)CCCN)OCC/C=C\CCCCC.Cl.Cl.Cl.Cl.Cl.Cl (configuration not stated)	1	2	2	97.8	1	1	4	1	37.2	4	> 500	32	4	1
CCCC/C=C\CCOP(=O)(CCN(CCCN)CCCN)OCCCCCCOP(=O)(CCN(CCCN)CCCN)OCC/C=C\CCCC.Cl.Cl.Cl.Cl.Cl.Cl (configuration not stated)	2	4	2	92.5	1	0.5	16	1	33.8	16	34.8	64	16	4
CC(C)COP(=O)(CCN(CCCN)CCCN)OCCCCCCCCCCCCOP(=O)(CCN(CCCN)CCCN)OCC(C)C.Cl.Cl.Cl.Cl.Cl.Cl (configuration not stated)	> 128	16	128	56.2	4	1	16	4	31.4	32	170	128	32	> 128
CCC/C=C\CCOP(=O)(CCN(CCCN)CCCN)OCCCOP(=O)(CCN(CCCN)CCCN)OCC/C=C\CCC.Cl.Cl.Cl.Cl.Cl.Cl (configuration not stated)	> 128	64	> 128	> 99	32	8	128	64	23.4	> 128	> 200	> 128	128	> 128
Cl.Cl.Cl.Cl.Cl.Cl.NCCCN(CCCN)CCP(=O)(OCCCCCOP(=O)(CCN(CCCN)CCCN)OCC12CC3CC(CC(C3)C1)C2)OCC12CC3CC(CC(C3)C1)C2 (configuration not stated)	4	2	2	> 99	2	2	8	2	34.1	4	415	64	32	2
CCCC/C=C\CCOP(=O)(CCN(CCCNC(=N)N)CCCNC(=N)N)OCCCCCCOP(=O)(CCN(CCCNC(=N)N)CCCNC(=N)N)OCC/C=C\CCCC.Cl.Cl.Cl.Cl.Cl.Cl (configuration not stated)	2	0.2	4	–	1	1	16	1	333	8	169	32	16	0.5
CCCCCOP(=O)(CCN(CCCN)CCCN)OCCCCCCCCOP(=O)(CCN(CCCN)CCCN)OCCCCC.Cl.Cl.Cl.Cl.Cl.Cl (configuration not stated)	> 128	32	> 128	–	8	4	128	16	27.5	> 128	> 100	> 128	> 128	> 128
Cl.Cl.Cl.Cl.Cl.Cl.N=C(N)NCCCN(CCCNC(=N)N)CCP(=O)(OCCCCCOP(=O)(CCN(CCCNC(=N)N)CCCNC(=N)N)OCC12CC3CC(CC(C3)C1)C2)OCC12CC3CC(CC(C3)C1)C2 (configuration not stated)	1	0.5	1	–	1	0.5	8	1	333	4	259	8	8	2
CCC/C=C\CCOP(=O)(CCN(CCCNC(=N)N)CCCNC(=N)N)OCCCCCCOP(=O)(CCN(CCCNC(=N)N)CCCNC(=N)N)OCC/C=C\CCC.Cl.Cl.Cl.Cl.Cl.Cl (configuration not stated)	2	2	2	–	2	2	64	2	29.7	64	> 500	> 128	64	2
CCCCCCOP(=O)(CCN(CCCN)CCCN)OCCCCCCOP(=O)(CCN(CCCN)CCCN)OCCCCCC.Cl.Cl.Cl.Cl.Cl.Cl (configuration not stated)	128	16	32	–	16	4	> 128	8	28.7	> 128	634	> 128	> 128	64
